{
  "source": "patent US20170275249A1",
  "about": "“SMALL LIPOPEPTIDOMIMETIC INHIBITORS OF GHRELIN O-ACYL TRANSFERASE” (THE REGENTS OF THE UNIVERSITY OF CALIFORNIA, priority 2014, published 2017)",
  "key": {"mouse GOAT": {"target": "T1, mouse GOAT (Mus musculus, UniProt P0C7A3)", "T1 construct": "made in house; host or cells: Sf9 insect cells (baculovirus), membrane fractions", "T1 sequence (P0C7A3 1-435)": "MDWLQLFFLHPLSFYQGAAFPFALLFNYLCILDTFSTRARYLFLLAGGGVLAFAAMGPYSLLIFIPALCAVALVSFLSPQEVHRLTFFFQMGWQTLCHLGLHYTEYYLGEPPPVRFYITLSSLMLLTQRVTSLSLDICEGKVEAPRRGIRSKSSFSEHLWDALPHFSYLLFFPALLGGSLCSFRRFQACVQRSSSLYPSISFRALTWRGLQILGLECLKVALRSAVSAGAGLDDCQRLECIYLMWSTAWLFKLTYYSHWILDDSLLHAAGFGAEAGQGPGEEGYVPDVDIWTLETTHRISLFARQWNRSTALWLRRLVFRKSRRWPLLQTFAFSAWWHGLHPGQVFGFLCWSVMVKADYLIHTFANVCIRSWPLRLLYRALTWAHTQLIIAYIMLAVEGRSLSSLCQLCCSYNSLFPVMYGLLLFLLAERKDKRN", "assay": "ghrelin radio-octanoylation assay (Yang et al.), Sf9 membrane fractions", "assay_type": "biochemical", "conditions": "for GOAT-inhibiting activity in vitro: relative to Compound 1", "protocol": "In vitro activity was quantified using the octanoylation assay developed by Yang et al. (2008, Proc. Natl. Acad. Sci. USA 105:10750-10755). No pure or soluble form of GOAT that retains enzymatic activity is thus far available. Recombinant poly-His-tagged ghrelin was incubated with radiolabeled octanoyl CoA and membrane fractions isolated from Sf9 cells infected with a GOAT-encoding baculovirus. Recovery of acyl- and des-acyl ghrelin using a Ni^2+ affinity column was followed by scintillation counting to determine the extent of acyltransferase activity, which was reported as a percentage of control.\nThiosarcosine derived peptidomimetic Compound 1 (of Example 1.1) and truncated analog Compound 2 (of Example 1.2), which served as a negative control, were screened for GOAT-inhibiting activity using membrane fractions prepared from Sf9 cells infected with baculovirus encoding mouse GOAT as a source of the acyltransferase. The assay detected specific acyl transfer from tritiated octanoyl-CoA to recombinant His-tagged proghrelin."}, "[1]": {"tested_on": "GOAT/preproghrelin-expressing INS-1 cells", "assay": "acyl ghrelin production in intact cells, Western immunoblot", "assay_type": "cell-based", "conditions": "18 hours incubation", "protocol": "Molecular parameters for Compound 1 were well within those characteristics of orally bioavailable drugs. In INS-1 cell culture, compounds were administered to cultured INS-1 cells that had been engineered to express GOAT and preproghrelin. After incubating the cells in the presence of the compounds for 18 hours, the cells were lysed and ghrelin species (acyl ghrelin vs. total ghrelin) present in the lysates were quantified by Western immunoblot. […] Total ghrelin levels were unchanged irrespective of the inhibitor concentration that was present."}, "[2]": {"conditions": "mouse plasma", "method": "(§1) (Taylor, M. S. et al., 2012, Methods in Enzymology 514:205-228.) For in vitro as well as in vivo pharmacokinetic analyses, inhibitor concentration was determined using LC/MS/MS.\n(§2) GOAT inhibitor (Compound 1) and control (Compound 2) were added to liver S9 fractions or mouse plasma and the concentrations of each compound over time were quantified using LC/MS/MS."}, "[3]": {"conditions": "human", "method": "as §1, §2"}, "[4]": {"tested_on": "acyl ghrelin : total ghrelin ratio in serum", "assay": "time course of serum acyl ghrelin after IP administration", "assay_type": "in vivo", "conditions": "mice, 80 mg/kg IP, FIG. 3", "protocol": "Compound 1 was administered intraperitoneally (IP) to mice (dosed at 80 mg/kg) at time zero and blood samples were collected at indicated timepoints (see FIG. 3). Serum acyl ghrelin: total ghrelin ratios were determined using ELISA with antibodies specific for acyl or des-acyl ghrelin. Inhibitor concentrations were determined using LC/MS/MS detection. […] Reappearance of acyl-ghrelin tracked with the time-dependent change in inhibitor concentration in plasma."}, "measured LogD": {"assay": "measured LogD", "assay_type": "physicochemical"}, "oral bioavailability": {"assay": "oral bioavailability", "assay_type": "in vivo"}, "[5]": {"assay": "stability in mouse plasma (LC/MS/MS)", "method": "as §1, §2"}, "[6]": {"assay": "stability in liver S9 fractions (LC/MS/MS)", "conditions": "human liver S9 fractions", "method": "as §1, §2"}, "[7]": {"conditions": "Table 1, inhibitory activity against GOAT, cells printed in nM"}},
  "note": "Like-named read-outs stand apart in the source and are kept apart here.",
  "data": [
    {"compound": "CCCCC1CC(C(=S)NC[C@H]2CCCN2C(=O)[C@@H](NC(=S)CN)C(C)(C)C)C1", "note": "(stereo partly drawn) [inhibitor 10, (1s,3R)—N—(((R)-1-((S)-2-(2-AMINOETHANETHIOAMIDO)-3,3-DIMETHYLBUTANOYL)PYRROLIDIN-2-YL)METHYL)-3-BUTYLCYCLOBUTANECARBO-THIOAMIDE HEMITARTRATE]", "values": [
      {"measurement": "GOAT-inhibiting activity in vitro", "setting": "mouse GOAT", "result": "equally potent"}
    ]},
    {"compound": "CCCC[C@H]1C[C@@H](C(=O)NCCN(C)C(=O)[C@@H](NC(=O)CN)C2CCCCC2)C1", "note": "[Entry 1]", "values": [
      {"measurement": "IC50", "setting": "mouse GOAT; [7]", "result": 2000, "unit": "nM"}
    ]},
    {"compound": "CCCC[C@H]1C[C@@H](C(=S)NC[C@H]2CCCN2C(=O)[C@@H](NC(=O)CN)C2CCCCC2)C1", "note": "[Entry 20]", "values": [
      {"measurement": "IC50", "setting": "mouse GOAT; [7]", "result": 650, "unit": "nM"}
    ]},
    {"compound": "CCCC[C@H]1C[C@H](C(=O)NC[C@H]2CCCN2C(=O)[C@@H](NC(=S)CN)C(C)(C)C)C1", "note": "[Entry 26]", "values": [
      {"measurement": "IC50", "setting": "mouse GOAT; [7]", "result": 25, "unit": "nM"}
    ]},
    {"compound": "C=CCOC(=O)NCC(=S)N[C@H](C(=O)N1CCC[C@@H]1CNC(=S)C1CC(CCCC)C1)C(C)(C)C", "note": "(some centres unmarked) [Entry 15]", "values": [
      {"measurement": "IC50", "setting": "mouse GOAT; [7]", "result": "> 3000", "unit": "nM"}
    ]},
    {"compound": "CCCCC1CC(C(=O)NC[C@H]2CCCN2C(=O)[C@@H](N)C(C)(C)C)C1.CCCCC1CC(C(=O)NC[C@H]2CCCN2C(=O)[C@@H](N)C(C)(C)C)C1.O=C(O)C(O)C(O)C(=O)O", "note": "(stereo partly drawn) [Compound 2, (1s,3R)—N—(((R)-1-((S)-2-AMINO-3,3-DIMETHYLBUTANOYL)PYRROLIDIN-2-YL)METHYL)-3-BUTYLCYCLOBUTANECARBOXAMIDE HEMITARTRATE]", "values": [
      {"measurement": "GOAT-inhibiting activity in vitro", "setting": "mouse GOAT", "result": "inactive"},
      {"measurement": "inhibition of acyl ghrelin biosynthesis", "setting": "[1]; FIG. 4", "result": "inactive"},
      {"measurement": "Plasma t1/2", "setting": "[2]", "result": 1.52, "unit": "h"},
      {"measurement": "Liver S9 t1/2", "setting": "[3]", "result": 2.08, "unit": "h"}
    ]},
    {"compound": "CCCC[C@H]1C[C@@H](C(=O)NC[C@H]2CCCN2C(=O)[C@@H](NC(=N)CN)C2CCCCC2)C1", "note": "[Entry 7]", "values": [
      {"measurement": "IC50", "setting": "mouse GOAT; [7]", "result": "> 3000", "unit": "nM"}
    ]},
    {"compound": "CCCCC1CC(C(=O)NC[C@H]2CCCN2C(=O)[C@@H](N)C(C)(C)C)C1", "note": "(some centres unmarked) [Entry 2]", "values": [
      {"measurement": "IC50", "setting": "mouse GOAT; [7]", "result": "> 3000", "unit": "nM"}
    ]},
    {"compound": "(1s,3R)-3-BUTYL-N—(((R)-1-((S)-3,3-DIMETHYL-2-(2-(METHYLAMINO)ETHANETHIOAMIDO)BUTANOYL)PYRROLIDIN-2-YL)METHYL)CYCLOBUTANE CARBOXAMIDE HEMITARTRATE [Compound 1]", "values": [
      {"measurement": "IC50", "setting": "mouse GOAT; FIG. 2, tritiated octanoyl-CoA, His-tagged proghrelin", "result": "~30", "unit": "nM"},
      {"measurement": "potency compared side-by-side with prior art GOAT inhibitors", "setting": "mouse GOAT; FIG. 6, versus compounds 3, 4, 5 and 6", "result": "by far the most potent inhibitor of GOAT"},
      {"measurement": "time at which acyl-ghrelin recovered", "setting": "[4]", "result": 3, "unit": "h"},
      {"measurement": "acyl-ghrelin in circulation", "setting": "[4]; within minutes", "result": "near undetectable levels"},
      {"measurement": "Measured LogD", "setting": "measured LogD", "result": 1.71},
      {"measurement": "concentration at which production of acyl ghrelin was inhibited", "setting": "[1]; FIG. 4", "result": "greater than 1 μM"},
      {"measurement": "concentration at which production of acyl ghrelin was substantially completely blocked", "setting": "[1]; FIG. 4", "result": "above 5 μM"},
      {"measurement": "total ghrelin levels", "setting": "[1]; irrespective of inhibitor concentration", "result": "unchanged"},
      {"measurement": "oral bioavailability % F", "setting": "oral bioavailability", "result": "10-15%"},
      {"measurement": "Plasma t1/2", "setting": "[5]", "result": ">10.5", "unit": "h"},
      {"measurement": "stability in mouse plasma", "setting": "[5]", "result": "stable"},
      {"measurement": "Liver S9 t1/2", "setting": "[6]", "result": 2.03, "unit": "h"},
      {"measurement": "metabolism by liver S9 fractions", "setting": "[6]", "result": "slowly metabolized"}
    ]},
    {"compound": "CCCC[C@H]1C[C@H](C(=S)NC[C@H]2CCCN2C(=O)[C@@H](NC(=S)CN)C(C)(C)C)C1", "note": "[Entry 16, (1s,3R)—N—(((R)-1-((S)-2-(2-AMINOETHANETHIOAMIDO)-3,3-DIMETHYLBUTANOYL)PYRROLIDIN-2-YL)METHYL)-3-BUTYLCYCLOBUTANECARBOTHIOAMIDE]", "values": [
      {"measurement": "IC50", "setting": "mouse GOAT; [7]", "result": 200, "unit": "nM"}
    ]},
    {"compound": "CCCC[C@H]1C[C@@H](C(=O)NC[C@H]2CCCN2C(=O)[C@@H](N)C2CCCCC2)C1", "note": "[Entry 9]", "values": [
      {"measurement": "IC50", "setting": "mouse GOAT; [7]", "result": "> 3000", "unit": "nM"}
    ]}
  ]
}
